Measured values from patent US20050075271A1, “Crystalline beta2 adrenergic receptor agonist” (priority 2002, published 2005).
Blank lines part the entries; values can stand above or below the compound they belong to.

Columns and labels:
Type in all cases: physicochemical
[1] = Solid state stability testing of crystalline diHCl salt, ground and unground, 30 days (DSC, TGA, XRPD, HPLC); conditions: for crystal stability by DSC after exposure to elevated temperature and humidity: 40° C. and 75% relative humidity vs room temperature desiccator, ground and unground samples, dihydrochloride
Method: A single lot of the crystalline diHCl salt of compound 1]prepared as in Example 6, was used to prepare four samples of approximately 30 mg each. Two samples were ground to fine particles with a mortar and pestle. Two samples, one ground and one that had not been processed, were stored in a closed chamber at 40° C. and 75% relative humidity for 30 days and two samples, one ground and one that had not been processed, were stored at room temperature in a desiccators for the same period. Samples were withdrawn for analysis by DSC and TGA at 11 days and by XRPD and HPLC at 30 days.
X-ray powder diffraction patterns were obtained with a Shimadzu 6000 diffractometer using Cu Kα (40.0 kV, 35.0 mA) radiation. The analysis was performed with the goniometer running in continuous-scan mode of 2°/min with a step size of 0.02° over a range of 4 to 45°. Samples were prepared on glass specimen holders as a thin layer of powdered material.
Differential scanning calorimetry traces were obtained with a TA instruments model DSC2010. Samples were placed in sealed aluminum pans for analysis with an empty pan serving as the reference. Samples were equilibrated at 30° C. and heated at 5° C. per minute to a temperature of 300° C. The instrument was calibrated with an indium standard.
(§1) Thermogravimetric analysis was conducted using a TA instruments model Q50. Samples were weighed in aluminum pans and heated from 50° C. to 300° C. at a rate of 10° C./min. Water content was estimated by measuring the total weight loss between 50° and 120° C. (a range in which no significant decomposition was observed).
(§2) Unless otherwise indicated, HPLC analysis was conducted using a Zorbax RP-bonus, C14, 25 cm×4.6 mm column, equilibrated at 35° C. The mobile phases used were: A: 0.1% TFA in 98:2 water:acetonitrile; and B: 0.1% TFA in 10:90 water:acetonitrile. Detection was by UV absorbance at 215 nm. A flow rate of 1.0 mL/min and a gradient of 0 to 60% B over 20 minutes was utilized. The diHCl salt of compound 1 gave a retention time of 11.7 min.

[2] = Solid state stability of recrystallized diHCl salt, 6 months at 40° C. and 75% relative humidity
Method: In another test, samples of the recrystallized diHCl salt of Example 7a were stored at 40° C. and 75% relative humidity.
as §1, §2
Chiral purity was determined using a Beckman P/ACE MDQ capillary electrophoresis system. The analysis was performed at pH 2.5 using heptakis-(2,3,-diacetyl-6-sulfato)-β-cyclodextrin (HDAS-β-CD) as the chiral selector and using a 50 μm×31.2 cm fused silica capillary. Detection was by UV absorbance at 200 nm. The four stereoisomers migrate in the following order: SS, RS, SR, RR, where compound 1 is designated as RR.

[3] = Second stability test of aqueous nebulizer formulation, HPLC, 4-9 months storage; conditions: nine months at 5° C.
[4] = as above; conditions: normalized to −20° C. sample
Method: (§3) An aqueous aerosol formulation for nebulizer administration having 0.1 mg of the active compound, compound 1, per gram of solution was prepared by the following procedure. Citric acid (755.8 mg) was added to a vessel charged with 0.9% sodium chloride solution (325.7 g). The active ingredient (42.3 mg) was added to the sodium chloride solution and the resulting mixture was stirred for 5 min and sonicated for 7 min to dissolve the active ingredient. The intial pH of the solution was determined to be 2.54. 1 N NaOH (7.1 g) was slowly added to the solution to obtain a final pH of 5.00. An additional amount of 0.9% sodium chloride solution (26.7 g) was added and the resulting solution was stirred to provide the aqueous formulation (360.3 g).
In a second stability test, aliquots were prepared and stored as above. Samples were removed for analysis by HPLC at various intervals. HPLC analysis was conducted using a MAC MOD Ace-5, C18, 25 cm×4.6 mm, 5 μm column, equilibrated at 30° C. The mobile phases were as described above. Detection was by UV absorbance at 244 nm. The initial condition was 6% phase B. A flow rate of 1.0 mL/min and a gradient of 6 to 30% B over 25 min, 30% to 60% B in 10 min and 60% to 100% B in 2 min were utilized. The retention time of compound 1 was approximately 20 min. The percent of active compound 1 remaining after the indicated period, normalized to the sample stored at −20° C. is given in Table 2 below.

[5] = Stability testing of aqueous nebulizer formulation (Formulation Example 1), HPLC, 1-4 months storage; conditions: for Percent of active compound remaining: aqueous formulation 0.1 mg/g, pH 5.00
Method: as §3
Aliquots of the formulation prepared as in Example 1 were stored at −20° C., 5° C., room temperature, and 40° C. Samples were removed for analysis by HPLC at 1 month intervals. HPLC analysis was conducted using a Zorbax RP-bonus, C14, 25 cm×4.6 mm column, equilibrated at 35° C. The mobile phases used were: A: 0.1% TFA in 98:2 water:acetonitrile; and B: 0.1% TFA in 10:90 water:acetonitrile. Detection was by UV absorbance at 215 nm. A flow rate of 1.0 mL/min and a gradient of 0 to 60% B over 20 minutes was utilized. The percent of active compound 1 remaining after the indicated period, normalized to the sample stored at −20° C. is given in Table 1 below.

[6] = 40° C. and 75% relative humidity, 30 days, ground and unground
[7] = 6 months at 40° C. and 75% relative humidity

crystal stability by DSC after exposure to elevated temperature and humidity ([1]; listed as crystalline diHCl salt): no detectable difference | XRPD pattern after exposure to heat and humidity [1, 6]: not appreciably affected | chemical degradation by HPLC [1, 6]: no appreciable chemical degradation | thermal stability ([1]; elevated temperatures): thermally stable | hygroscopicity ([1]; exposed to the atmosphere for prolonged periods at high relative humidity): neither hygroscopic nor deliquescent | decomposition on grinding into micronized particles ([1]; ground into micronized particles): without significant decomposition | water content ([2]; 6 mo at 40° C. and 75% relative humidity): 0.37% | appearance of the material after storage [2, 7]: no visible contamination | chemical purity by HPLC analysis after storage [2, 7]: essentially unchanged | chiral purity after storage [2, 7]: no change | water content ([2]; initially): 0.12%
SMILES: Cl.Cl.O=CNc1cc([C@@H](O)CNCCc2ccc(NC[C@H](O)c3ccccc3)cc2)ccc1O [crystalline diHCl salt of compound 1, N-{2-[4-((R)-2-hydroxy-2-phenylethylamino)phenyl]ethyl}-(R)-2-hydroxy-2-(3-formamido-4-hydroxyphenyl)ethylamine dihydrochloride]
crystal stability by DSC after exposure to elevated temperature and humidity [1]: no detectable effect on crystal stability | water associated with crystals by TGA after exposure to high relative humidity ([1]; 40° C. and 75% relative humidity, ground and unground crystals, 11 days): no appreciable quantity of water becomes associated

free base composition of nebulizer solution upon storage [3]: essentially unchanged | Percent of active compound remaining ([4]; 5° C., 4 months): 99% | Percent of active compound remaining ([4]; 5° C., 5 months): 99% | Percent of active compound remaining ([4]; 5° C., 6 months): 100% | Percent of active compound remaining ([4]; 5° C., 9 months): 99% | Percent of active compound remaining ([4]; 40° C., 4 months): 74% | Percent of active compound remaining ([4]; 40° C., 5 months): 69% | Percent of active compound remaining ([4]; 40° C., 6 months): 63% | Percent of active compound remaining ([4]; room temperature, 4 months): 97% | Percent of active compound remaining ([4]; room temperature, 5 months): 95% | Percent of active compound remaining ([4]; room temperature, 6 months): 94% | Percent of active compound remaining ([4]; room temperature, 9 months): 90% | Percent of active compound remaining ([5]; 5° C., 1 month, normalized to sample stored at −20° C.): 101% | Percent of active compound remaining ([5]; 5° C., 2 months, normalized to −20° C. sample): 100% | Percent of active compound remaining ([5]; 5° C., 3 months, normalized to −20° C. sample): 100% | Percent of active compound remaining ([5]; 5° C., 4 months, normalized to −20° C. sample): 99% | Percent of active compound remaining ([5]; 40° C., 1 month, normalized to −20° C. sample): 94% | Percent of active compound remaining ([5]; 40° C., 2 months, normalized to −20° C. sample): 87% | Percent of active compound remaining ([5]; 40° C., 3 months, normalized to −20° C. sample): 72% | Percent of active compound remaining ([5]; 40° C., 4 months, normalized to −20° C. sample): 74% | chemical degradation of nebulizer solution upon storage (HPLC) ([5]; nebulizer solution 0.1 mg compound 1 per gram, four months at room temperature): no unacceptable chemical degradation | Percent of active compound remaining ([5]; room temperature, 1 month, normalized to −20° C. sample): 99% | Percent of active compound remaining ([5]; room temperature, 2 months, normalized to −20° C. sample): 99% | Percent of active compound remaining ([5]; room temperature, 3 months, normalized to −20° C. sample): 97% | Percent of active compound remaining ([5]; room temperature, 4 months, normalized to −20° C. sample): 96%
SMILES: O=CNc1cc([C@@H](O)CNCCc2ccc(NC[C@H](O)c3ccccc3)cc2)ccc1O [compound 1, N-{2-[4-((R)-2-hydroxy-2-phenylethylamino)phenyl]ethyl}-(R)-2-hydroxy-2-(3-formamido-4-hydroxyphenyl)ethylamine]
